# Experimental data from PMC6418866 (Journal of the American Chemical Society, 2019).
# Read-outs that look alike come from different tables or passages of the source.
# Experiments:
# [1] = molecular target: T1, recombinant human GBA (rGBA, Cerezyme) (Homo sapiens, UniProt P04062, R534H); conditions: read-out: Apparent IC50, rGBA; 3 h preincubation; cited from earlier work
# T1 sequence (P04062 40-536 R534H): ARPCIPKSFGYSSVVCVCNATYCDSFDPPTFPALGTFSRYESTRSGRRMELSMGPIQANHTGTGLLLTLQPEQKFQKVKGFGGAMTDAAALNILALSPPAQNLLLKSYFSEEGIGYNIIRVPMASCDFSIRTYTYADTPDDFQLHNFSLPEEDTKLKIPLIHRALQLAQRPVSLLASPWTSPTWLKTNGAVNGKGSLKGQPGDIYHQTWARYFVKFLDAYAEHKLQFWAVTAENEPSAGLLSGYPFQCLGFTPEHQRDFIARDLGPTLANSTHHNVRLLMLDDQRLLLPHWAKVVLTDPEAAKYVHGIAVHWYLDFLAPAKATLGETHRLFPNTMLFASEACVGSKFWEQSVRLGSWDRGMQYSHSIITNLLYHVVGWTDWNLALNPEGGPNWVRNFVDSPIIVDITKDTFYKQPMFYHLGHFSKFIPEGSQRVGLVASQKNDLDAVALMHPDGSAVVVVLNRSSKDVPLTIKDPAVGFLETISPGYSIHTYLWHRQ
# [2] = molecular target: recombinant human GAA (rGAA, Myozyme) (Homo sapiens, UniProt P10253); experiment: In vitro inhibition of rGAA; conditions: IC50 ratio
# [3] = system: GBA; conditions: cited from earlier work
# [4] = system: glucosylsphingosine (GlcSph); experiment: Glucosylsphingosine levels in treated zebrafish embryos; type: in vivo, Danio rerio; conditions: 0.1–10 μM inhibitor, zebrafish embryos treated 5 days
# [5] = molecular target: T2, GAA (Danio rerio, UniProt A0A8M1QKP5); experiment: In vivo GAA inactivation in zebrafish larvae, ABP labeling; conditions: 0.1–10 μM, 5 days in vivo
# T2 sequence (A0A8M1QKP5 31-918): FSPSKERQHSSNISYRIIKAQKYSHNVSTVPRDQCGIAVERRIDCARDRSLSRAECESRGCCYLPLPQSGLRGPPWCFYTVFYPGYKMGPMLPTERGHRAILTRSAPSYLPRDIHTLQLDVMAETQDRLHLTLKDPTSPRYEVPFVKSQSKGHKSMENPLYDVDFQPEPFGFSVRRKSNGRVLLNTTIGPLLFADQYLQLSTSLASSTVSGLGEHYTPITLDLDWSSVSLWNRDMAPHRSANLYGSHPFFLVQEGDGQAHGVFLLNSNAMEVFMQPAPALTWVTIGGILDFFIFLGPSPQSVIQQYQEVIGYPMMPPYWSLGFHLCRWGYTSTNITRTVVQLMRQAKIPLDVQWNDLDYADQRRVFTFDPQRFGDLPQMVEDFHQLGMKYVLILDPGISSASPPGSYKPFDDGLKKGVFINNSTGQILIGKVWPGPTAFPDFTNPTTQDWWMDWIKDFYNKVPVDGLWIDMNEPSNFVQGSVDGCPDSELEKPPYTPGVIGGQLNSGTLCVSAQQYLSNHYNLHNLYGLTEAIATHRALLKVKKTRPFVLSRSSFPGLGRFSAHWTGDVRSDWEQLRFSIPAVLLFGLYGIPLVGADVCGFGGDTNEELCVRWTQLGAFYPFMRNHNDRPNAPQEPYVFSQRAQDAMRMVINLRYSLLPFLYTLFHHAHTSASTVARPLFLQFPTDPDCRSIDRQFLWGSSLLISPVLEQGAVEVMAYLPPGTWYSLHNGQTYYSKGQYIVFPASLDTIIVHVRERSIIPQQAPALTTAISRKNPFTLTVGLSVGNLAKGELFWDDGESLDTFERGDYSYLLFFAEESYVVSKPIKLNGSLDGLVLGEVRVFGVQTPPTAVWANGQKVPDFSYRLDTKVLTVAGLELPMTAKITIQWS
# [6] = system: LPH; experiment: In vivo LPH labeling in zebrafish larvae, competitive ABPP; conditions: 0.1–10 μM, 5 days in vivo
# [7] = molecular target: T3, GBA2 (Danio rerio, UniProt E7F5W0); experiment: In vivo GBA2 inactivation in zebrafish larvae, ABP labeling; conditions: 0.1–10 μM, 5 days in vivo
# T3 sequence (E7F5W0 1-851): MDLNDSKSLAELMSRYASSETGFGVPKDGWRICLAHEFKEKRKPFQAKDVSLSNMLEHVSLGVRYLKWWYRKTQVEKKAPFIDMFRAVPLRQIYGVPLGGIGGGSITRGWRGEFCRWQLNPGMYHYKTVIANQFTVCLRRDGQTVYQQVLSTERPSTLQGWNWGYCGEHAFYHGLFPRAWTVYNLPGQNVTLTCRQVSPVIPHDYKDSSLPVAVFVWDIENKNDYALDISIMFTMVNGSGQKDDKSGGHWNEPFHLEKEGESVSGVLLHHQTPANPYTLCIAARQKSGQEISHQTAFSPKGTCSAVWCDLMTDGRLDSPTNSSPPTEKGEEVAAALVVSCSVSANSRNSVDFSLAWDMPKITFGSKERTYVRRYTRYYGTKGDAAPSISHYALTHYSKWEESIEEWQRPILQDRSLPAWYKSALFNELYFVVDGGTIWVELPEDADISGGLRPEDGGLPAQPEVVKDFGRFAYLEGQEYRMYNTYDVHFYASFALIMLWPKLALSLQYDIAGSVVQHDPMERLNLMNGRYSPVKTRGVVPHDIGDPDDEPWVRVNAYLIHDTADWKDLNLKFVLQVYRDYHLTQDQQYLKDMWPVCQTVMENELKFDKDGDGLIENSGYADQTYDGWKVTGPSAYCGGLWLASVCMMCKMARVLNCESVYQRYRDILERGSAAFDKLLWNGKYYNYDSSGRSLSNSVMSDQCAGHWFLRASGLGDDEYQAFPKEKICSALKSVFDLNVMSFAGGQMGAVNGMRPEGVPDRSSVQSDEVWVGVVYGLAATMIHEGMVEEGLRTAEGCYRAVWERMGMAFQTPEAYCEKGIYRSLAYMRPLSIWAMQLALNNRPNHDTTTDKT
# [8] = system: lysosomal β-glucuronidase GUSB; experiment: In vivo GUSB labeling in zebrafish larvae, competitive ABPP; conditions: 0.1–10 μM, 5 days in vivo
# [9] = system: ER α-glucosidase GANAB; experiment: In vivo GANAB labeling in zebrafish larvae, competitive ABPP; conditions: 0.1–10 μM, 5 days in vivo
# [10] = molecular target: T1, recombinant human GBA (rGBA, Cerezyme); experiment: In vitro inhibition of rGBA, 4-MU fluorogenic substrate assay; conditions: Apparent IC50, in vitro rGBA, 3 h preincubation, 2 nM enzyme
# [11] = molecular target: T4, GBA (Danio rerio, UniProt E7EZM1); experiment: In vivo GBA inactivation in zebrafish larvae, quantified by ABP labeling; conditions: 0.1–10 μM, 5 days in vivo
# T4 sequence (E7EZM1 20-518): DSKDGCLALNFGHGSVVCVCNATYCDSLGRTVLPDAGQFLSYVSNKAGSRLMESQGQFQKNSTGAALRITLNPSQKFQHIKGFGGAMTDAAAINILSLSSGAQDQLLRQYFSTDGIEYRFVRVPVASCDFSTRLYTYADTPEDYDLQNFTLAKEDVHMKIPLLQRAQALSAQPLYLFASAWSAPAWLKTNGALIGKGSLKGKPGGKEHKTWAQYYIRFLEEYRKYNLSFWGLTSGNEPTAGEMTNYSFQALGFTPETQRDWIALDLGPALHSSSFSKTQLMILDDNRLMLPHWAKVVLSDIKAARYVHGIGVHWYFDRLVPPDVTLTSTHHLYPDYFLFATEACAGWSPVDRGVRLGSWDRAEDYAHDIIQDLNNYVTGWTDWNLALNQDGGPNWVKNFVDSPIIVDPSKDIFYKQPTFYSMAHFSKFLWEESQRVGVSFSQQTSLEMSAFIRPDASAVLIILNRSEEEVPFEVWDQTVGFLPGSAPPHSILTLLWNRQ
smiles,measurement,setting,value
"O[C@H]1[C@H](O)[C@@H](O)[C@@H]2O[C@@H]2[C@@H]1O (racemic) [CBE 1, conduritol B epoxide]",IC50,[1],4.28 µM
same,Ratio (in vitro) GAA/GBA,[2],444
"OC[C@@H]1[C@@H](O)[C@H](O)[C@@H](O)[C@@H]2O[C@H]12 [CP 2, cyclophellitol]",GBA inhibition potency (in words),[3],high nanomolar to micromolar
"O[C@@H]1[C@@H](O)[C@@H]2O[C@@H]2[C@H](Cn2cc(CCCOCc3ccc(-c4ccccc4)cc3)nn2)[C@H]1O [Compound 6, Biphenyl-cyclophellitol]",Elevation in the level of glucosylsphingosine (GlcSph),[4],10–30 fold
same,ABP labeling of GAA in lysates of treated zebrafish,[5],not affected
same,ABP labeling of LPH in lysates of treated zebrafish,[6],not affected
same,ABP labeling of GBA2 in lysates of treated zebrafish,[7],not affected
same,ABP labeling of GUSB in lysates of treated zebrafish,[8],not affected
same,ABP labeling of GANAB in lysates of treated zebrafish,[9],not affected
same,IC50,[10],0.001 µM
same,ABP labeling of GBA with ABP 8 and ABP 5 in lysates of treated zebrafish,[11],abrogated
